Measured values: paper PMC8449657, “Identification of a self‐sufficient cytochrome P450 monooxygenase from Cupriavidus pinatubonensis JMP134 involved in 2‐hydroxyphenylacetic acid catabolism, via homogentisate pathway” (Microbial Biotechnology, 2021)

Biological target: T1, OhpA (Cupriavidus pinatubonensis, UniProt Q46QG0)
T1 construct: gene Reut_B5278; full length, 783 aa, untagged as far as told; pBS1-ohpA (PBAD) expressed in Pseudomonas putida KT2440, assayed in cell extract
T1 sequence (Q46QG0 1-783): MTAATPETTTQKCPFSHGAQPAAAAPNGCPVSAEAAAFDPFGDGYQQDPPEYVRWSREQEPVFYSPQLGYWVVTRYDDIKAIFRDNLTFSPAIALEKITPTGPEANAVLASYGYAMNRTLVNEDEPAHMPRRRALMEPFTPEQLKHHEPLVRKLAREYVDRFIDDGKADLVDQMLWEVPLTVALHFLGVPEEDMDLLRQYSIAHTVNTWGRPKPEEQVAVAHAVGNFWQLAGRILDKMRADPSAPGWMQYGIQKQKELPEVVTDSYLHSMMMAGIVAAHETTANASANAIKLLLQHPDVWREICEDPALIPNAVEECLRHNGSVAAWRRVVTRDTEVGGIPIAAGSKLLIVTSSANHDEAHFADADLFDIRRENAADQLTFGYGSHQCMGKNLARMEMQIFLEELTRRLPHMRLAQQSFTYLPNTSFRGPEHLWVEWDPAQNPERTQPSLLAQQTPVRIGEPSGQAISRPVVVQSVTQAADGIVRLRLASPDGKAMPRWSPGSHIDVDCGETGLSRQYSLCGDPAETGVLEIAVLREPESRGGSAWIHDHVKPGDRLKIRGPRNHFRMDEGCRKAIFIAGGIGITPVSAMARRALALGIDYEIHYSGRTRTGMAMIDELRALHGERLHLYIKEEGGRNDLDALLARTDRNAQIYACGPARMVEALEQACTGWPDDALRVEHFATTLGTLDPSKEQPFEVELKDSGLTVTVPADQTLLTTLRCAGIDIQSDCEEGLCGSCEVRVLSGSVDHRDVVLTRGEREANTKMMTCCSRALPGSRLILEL
Test: substrate-dependent NADH oxidation at […] nm in extract of P. putida KT2440 pBS1-ohpA
Type: biochemical
Conditions: 0.2 mM NADH, 100 uM 2-HPA, 1 uM FAD, 35 mM Tris/acetate pH 7.5

`NC(=O)C1=CN([C@@H]2O[C@H](COP(=O)(O)OP(=O)(O)OC[C@H]3O[C@@H](n4cnc5c(N)ncnc54)[C@H](O)[C@@H]3O)[C@@H](O)[C@H]2O)C=CC1` [NADH] was tested, and the “substrate-dependent NADH oxidation at 340 nm in extract of P. putida KT2440 pBS1” value was “we assayed the substrate‐dependent NADH oxidation in cell extracts of P. putida KT2440 harbouring pBS1‐ohpA”.
